molecular target: T1, Dihydrofolate reductase (Bos taurus, UniProt P00376); assay: Inhibition of dihydrofolate reductase from bovine liver
T1 sequence (P00376 whole entry): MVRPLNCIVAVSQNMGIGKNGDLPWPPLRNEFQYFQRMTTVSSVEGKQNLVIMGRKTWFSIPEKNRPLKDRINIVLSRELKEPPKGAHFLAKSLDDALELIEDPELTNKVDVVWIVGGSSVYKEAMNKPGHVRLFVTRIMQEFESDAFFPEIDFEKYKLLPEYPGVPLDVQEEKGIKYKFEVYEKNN

Compound	Ki [µM]
Nc1ncc(Cc2cccc(C(F)(F)F)c2)c(N)n1	2.95
Nc1ccc(Cc2cnc(N)nc2N)cc1	26.9
Nc1ncc(Cc2cc(CO)cc(CO)c2)c(N)n1	50.1
Nc1ncc(Cc2cccc(CO)c2)c(N)n1	6.31
CS(=O)(=O)Oc1cccc(Cc2cnc(N)nc2N)c1	2.63
Nc1ncc(Cc2ccc(OC(F)(F)F)cc2)c(N)n1	3.8
CCCCOCc1cccc(Cc2cnc(N)nc2N)c1	1.38
Nc1ncc(Cc2cccc(I)c2)c(N)n1	0.708
COCc1cccc(Cc2cnc(N)nc2N)c1	3.24
Cc1ccc(Cc2cnc(N)nc2N)cc1	15.8
CC(=O)Nc1ccc(Cc2cnc(N)nc2N)cc1[N+](=O)[O-]	6.92
CCCCOc1ccc(Cc2cnc(N)nc2N)cc1	1.82
Nc1ncc(Cc2cccc(O)c2)c(N)n1 [3-(2,4-Diamino-pyrimidin-5-ylmethyl)-phenol]	13.2
COCCOc1c(OC)cc(Cc2cnc(N)nc2N)cc1OC [5-[3,5-Dimethoxy-4-(2-methoxy-ethoxy)-benzyl]-pyrimidine-2,4-diamine]	13.2
COc1ccc(Cc2cnc(N)nc2N)cc1OC [Diaveridine]	7.08

Source: BindingDB's records for doi:10.1021/jm00137a012 (1981)
